# Values of other authors, collected in patent US20190289805A1, “CULTURING METHOD FOR CULTURED LEGUMINOUS ROOTS HAVING INCREASED COUMESTROL CONTENT” (Amorepacific Corporation, priority 2016, published 2019).
# System: mouse uterus
# Conditions: oral administration
smiles,measurement,setting,value
O=c1oc2cc(O)ccc2c2oc3cc(O)ccc3c12 [coumestrol],estrogen effect,mature mice,has no estrogen effect
same,estrogen effect (change in weight of uterus),young female mice,exhibits an effective estrogen effect
